Data taken from patent US20230107216A1, “PANTETHEINE DERIVATIVES AND USES THEREOF” (Comet Therapeutics, Inc., priority 2018, published 2023).
Like-named read-outs stand apart in the source and are kept apart here.

What was measured:
HepG2 cells [1] = experiment: Glucose uptake (Glucose Uptake-Glo); type: cell-based; conditions: Homo sapiens, 50 uM, read-out: % increase in Glucose Uptake
[2] = system: Peripheral blood mononuclear cells co-cultured with venular endothelial cells (HUVEC) (LPS system); experiment: BioMAP LPS system; type: cell-based, human; conditions: 10 uM, procedure of Example 827
[3] = system: Bronchial epithelial cells (BE3C system); experiment: BioMAP BE3C system (IL-1β, TNFα, IFNγ); type: cell-based, human; conditions: Homo sapiens, Epithelial cell, 24 h; 10 uM; procedure of Example 831; read-out: % decrease in MMP-1
[4] = system: Coronary artery smooth muscle cells (CASM3C system); experiment: BioMAP CASM3C system (IL-1β, TNFα, IFNγ); type: cell-based, human
[5] = system: Propionic Acidemia (PA) primary fibroblasts GM00371; experiment: Mitochondrial respiration, XFe96 Extracellular Flux Analyzer (OCR/ECAR), PA fibroblasts GM00371; type: cell-based; conditions: Homo sapiens, Fibroblast, assay condition C (10 mM glucose, 10% FBS), 50 μM, read-out: Increase in Maximal Respiratory Capacity AUC
[6] = system: Methylmalonic Acidemia (MMA) primary fibroblasts GM01673; experiment: Mitochondrial respiration, XFe96 Extracellular Flux Analyzer (OCR/ECAR), MMA fibroblasts GM01673; type: cell-based; conditions: Homo sapiens, Fibroblast, assay condition D (1 mM glucose, 10% FBS), 10 μM, read-out: Increase in Maximal Respiratory Capacity AUC
Procedure: The effect of the compounds of the present disclosure on mitochondrial respiration was measured with a XFe96 Extracellular Flux Analyzer (Seahorse Bioscience, Agilent Technologies) and Oxygen consumption Rate (OCR) and Extracellular acidification rate (ECAR) determined.
Cell culture and treatments. Primary adherent fibroblasts were cultured in minimum essential medium (MEM) (Gibco, 25030081) supplemented with 2 mM L-Glutamine (Gibco, 25030081), 15% fetal bovine serum (FBS) (Gibco, 26400044) and 1% penicillin/streptomycin (Gibco, 5140122) at 37° C. and 5% CO2. Cells were collected for either passaging or experiment at ˜70-80% confluence. Cells were obtained by trypsinization and seeded at 20000 cells/well in cell culture microplates (Seahorse Bioscience, 101085-004) and allowed to adhere for 16 hours in culture media.
By profiling different primary cells and/or optimizing their culture media or environmental components one can select cell lines and/or conditions that are appropriate for the biological or disease model. In the present example, 24 hours prior to OCR and ECAR profiling, media was changed to Dulbecco's Modified Eagle Medium (DMEM, Agilent Seahorse 103575-100) with the appropriate supplements for the different primary cells (10 mM glucose, 2 mM L-glutamine, 1 mM pyruvate, 10% FBS; 1 mM glucose, 2 mM L-glutamine, 1 mM pyruvate, 10% FBS; 10 mM glucose, 10% FBS; 5 mM glucose 10% FBS; 1 mM glucose 10% FBS). Cells used in this example were: Propionic Acidemia (PA) (GM00371, GM03590 Coriell Institute for Medical Research, Tsi 6337, Tsi 4626, Tsi 3618 Trans-Hit Bio), Methylmalonic Acidemia (MMA) (GM01673, Coriell Institute for Medical Research, Tsi 5224 Trans-Hit Bio), Branched chain ketoacid dehydrogenase kinase (BCKDK) (GM00612, GM00649 Coriell Institute for Medical Research), Subnormal activation of pyruvate dehydrogenase complex (PDH) (GM01503 Coriell Institute for Medical Research), Very long-chain acyl-CoA dehydrogenase (VLCAD) (GM17475), Leigh Syndrome (LS) (GM03672, GM13411 Coriell Institute for Medical Research), Pyruvate Carboxylase Deficiency (PC) (GM00444 Coriell Institute for Medical Research), Glutaric Acidemia-I (GA) (GM10653), Friedreich's Ataxia (FXN) (GM04078 Coriell Institute for Medical Research, Huntington's disease (HD) (GM21756 Coriell Institute for Medical Research), Ornithine Transcarbamylase Deficiency (OTC) (GM12756 Coriell Institute for Medical Research), Kearns-Sayre Syndrome (KSS) (GM06225 Coriell Institute for Medical Research).
One hour before the assay, the cells were washed with freshly prepared unbuffered serum free-Seahorse XF Assay medium (Seahorse Bioscience, North America, USA, 103575-100) with the same supplements as for the previous 24 hour incubation.
After baseline measurements of OCR, cells were challenged with compounds of the present disclosure at different concentrations (10 to 50 μM) or vehicle (DMSO, 0.1%) and a post-compound baseline was recorded. OCR was measured after sequentially adding to each well 1 μg/ml oligomycin (inhibitor of ATP synthase Sigma-Aldrich, 753531), then maximal OCR was determined with carbonyl cyanide 4-(trifluoromethoxy) phenylhydrazone (FCCP, Sigma-Aldrich, C2920), (uncoupler of oxidative phosphorylation) and 0.5 μM of rotenone (Sigma-Aldrich, R8875) plus antimycin A (Sigma-Aldrich, A8674) (inhibitors of mitochondrial complex I and III) for determination of rotenone-antimycin insensitive respiration together with Hoechst for nuclear staining in situ when normalized to cell counts. After the analysis and nuclear staining, the XFp microplate was transferred to the Cytation 5, and the nuclear images were captured, the individual nuclei were identified and counted by BioTek Gen5 software. Data were expressed as pmol of O2 per minute and normalized by nuclear staining and baselined to pre-compound addition.
Assay conditions were as stated below.
Assay specifics on assay conditions are indicated below when readouts were normalized to cell counts. […]

[7] = system: Peripheral blood mononuclear cells co-cultured with B-cells (BT system); experiment: cells; conditions: Homo sapiens, 72 h, read-out: % decrease in sIL-17
[8] = system: Bronchial epithelial cells co-cultured with dermal fibroblast (BF4T system); experiment: BioMAP BF4T system (TNFα and IL-4); type: cell-based, human; conditions: Homo sapiens, 24 h; 1 uM; procedure of Example 830; read-out: % increase in VCAM-1
[9] = system: Keratinocytes co-cultured with dermal fibroblast (KF3CT system); experiment: BioMAP KF3CT system (IL-1β, TNFα, IFNγ, TGFβ); type: cell-based, human; conditions: 1 uM
Procedure: The BioMAP platform (BioMAP® Diversity PLUS® Panel from Eurofins) is an in vitro phenotypic profiling technology that screened the compounds of the present disclosure (hereafter indicated as test agents) in human primary cell-based systems modelling complex tissue and disease states. The BioMAP assays were performed using the Eurofin's BioMAP Technology Platform as (see references 1 to 13 in the example 824 section) to model different diseases on primary cell-based model systems. These systems consisted of either single primary cell types or co-culture cells. Adherent cell types were cultured or co-cultured in 96 or 384-well plates until confluence followed by the addition of compounds prepared in DMSO at a final concentration of ≤0.1%. In each cell-based system, primary cells from heathy donors (2-6 donors) were pooled and treated with compounds at 1 and 10 μM dose 1h prior to stimulation and remain in culture as indicated in Example 825, Example 826, Example 827, Example 828, Example 829, Example 830, Example 831, Example 832, Example 833, Example 834, Example 835, Example 836 and Example 837. For on the BioMAP® Diversity PLUS® Panel, please see the following references, which are incorporate herein.
Following the general procedure as described in Example 824, Keratinocytes were co-cultured with dermal fibroblast (KF3CT system) and treated with IL-1β, TNFα, IFNγ and TGFβ for 24h in the presence or absence of the compounds to model psoriasis, dermatitis and skin biology. Biomarkers read out were; MCP-1, ICAM-1, IP-10, IL-8, MIG, IL-1α, MMP-9, PAI-1, SRB, TIMP-2, uPA.

[10] = system: Dermal fibroblasts (HDF3CGF system); experiment: BioMAP HDF3CGF system (IL-1β, TNFα, IFNγ, EGF, bFGF, PDGF-BB); type: cell-based, human; conditions: Homo sapiens, Fibroblast, 72 h; 1 uM; read-out: % increase in 72 Hour Proliferation
HepG2 cells [11] = experiment: Mitochondrial membrane potential (MITO-ID MP detection Kit); type: cell-based; conditions: Homo sapiens, 168 h, 7 days, read-out: % decrease in Mitochondrial Membrane Potential
How it was run: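 Cells plated at 160000 cells/mL in DMEM with 10% FBS and 1% Pen-Strep, adhered overnight at 37° C., 5% CO2. Exposure to test compounds (50-10 μM) or 0.2% DMSO for 7 days without media change; membrane potential measured with MITO-ID MP detection kit per manufacturer.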

HepG2 cells [12] = experiment: MitoBiogenesis In-Cell ELISA (COX-I, SDH-A); type: cell-based; conditions: Homo sapiens, 168 h, 10 uM, 7 days, read-out: % increase in Mitochondrial Biogenesis
Text: We determined the effect of compounds of the present disclosure on the levels of two mitochondrial proteins using MitoBiogenesis™ In-Cell ELISA Kit (Abcam ab110216) according to manufacturer's instructions. The two proteins are each subunits of a different oxidative phosphorylation enzyme complex, one protein being subunit I of Complex IV (COX-1), which is mitochondrial (mt)DNA-encoded, and the other being the 70 kDa subunit of Complex II (SDH-A), which is nuclear (n)DNA-encoded. Complex IV includes several proteins which are encoded in the mitochondrion, while the proteins of Complex II are entirely encoded in the nucleus. HepG2 cells (ATCC, HB-8065) were cultured (5% CO2 at 37° C.) and plated in Poly-D-Lysine 384-Well plate (Corning, 356663) at a density of 40,000 cells/mL in 50 μL. Culture and assay media consisted of DMEM (Gibco, 11995-065) supplemented with 1% Penicillin-Streptomycin and 10% FBS (Hyclone, SV30087.03). Cells were allowed to settle for 30 min at room temperature and further incubated overnight (37° C. and 5% CO2) for adherence. Next day, 50-5 μM of the negative control Chloramphenicol (Selleck, S1677), test compounds (50-10 μM) and vehicle DMSO (0.2%) were added at the recommended volumes to the 384-well plate for 7 days without media change using a Tecan compound dispenser. All the solutions and wash buffers were prepared and dispensed according to manufacturer's volumes for a 384-well plate format. Effects of compounds on mtDNA-encoded protein expression (COX-I) and nuclear DNA-encoded mitochondrial protein expression (SDH-A) were expressed as relative signal (nm) to vehicle of a n=2 per conditions.

[13] = system: primary fibroblasts (healthy controls and PA, MMA, BCKDK, PDH, VLCAD, LS, PC, GA, VLCFA, KSS, FXN, HD); experiment: Measurement of ROS (H2DCFDA) in primary fibroblasts; type: cell-based, human; conditions: Homo sapiens, Fibroblast, BCKD GM00649, procedure Example 812, Assay Condition C
How it was run: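 Patient and healthy-control primary fibroblasts switched to supplemented DMEM 24 h before assay, then treated with compound (10 μM) plus H2DCFDA (22 μM) for 2 h (PA, MMA lines) or 24 h (other lines). Kinetic fluorescence at 492/527 nm over 60 min; only live cells analysed.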

CC(C)(CO)[C@@H](O)C(=O)NCCC(=O)NCCSC(CC(=O)O)C(=O)OCC[N+](C)(C)C (stereo partly drawn) [Compound 57, 3-(2-{3-[(R)-2,4-dihydroxy-3,3-dimethylbutyrylamino]propionylamino}ethylthio)-3-(2-trimethylazaniumethoxycarbonyl)propionic acid]
activation at 50 µM (HepG2 cells [1]): ≥ 20%
% increase in sPGE2 [2]: ≥10%
inhibition at 10 µM ([2]; Homo sapiens, HUVEC, 24 h, read-out: % decrease in TissueFactor): ≥ 10%
activation at 10 µM ([2]; Homo sapiens, HUVEC, 24 h, read-out: % increase in sTNFα): ≥ 20%
inhibition at 10 µM [3]: ≥ 10%
% decrease in Tissue Factor ([4]; 1 uM): ≥10%
% decrease in Proliferation ([4]; 1 uM, procedure of Example 832): ≥10%
% decrease in CXCL9 ([4]; 10 uM): ≥10%
% decrease in HLA-DR ([4]; 10 uM): ≥10%
inhibition at 10 µM ([4]; Homo sapiens, 24 h, 10 uM, read-out: % decrease in Thrombomodulin): ≥ 20%
activation at 50 µM [5]: ≥ 10%
activation at 10 µM [6]: ≥ 10%
inhibition at 10 µM [7]: ≥ 20%
activation at 1 µM [8]: ≥ 10%
% decrease in PAI-I [9]: ≥10%
% decrease in MCP-1 ([9]; procedure of 834): ≥10%
activation at 1 µM [10]: ≥ 10%

COC(=O)CCC(=O)SCCNC(=O)CCNC(=O)[C@H](O)C(C)(C)COP(=O)(O)O [Compound 62, Methyl (R)-4-((2-(3-(2-hydroxy-3,3-dimethyl-4-(phosphonooxy)butanamido)propanamido)ethyl)thio)-4-oxobutanoate]
inhibition at 50 µM (HepG2 cells [11]; 50 uM): > 50%
activation at 10 µM (HepG2 cells [12]): > 5%

COC(=O)C[C@H](N)C(=O)SCCNC(=O)CCNC(=O)[C@H](O)C(C)(C)CO [Compound 414]
inhibition at 10 µM ([13]; read-out: Decreased ROS by at least 10%): ≥ 10%
inhibition at 10 µM ([13]; read-out: Decreased ROS by at least 30%): ≥ 30%
inhibition at 10 µM (HepG2 cells [11]): > 20%
activation at 10 µM (HepG2 cells [12]): 10%

CSCCNC(=O)CCNC(=O)[C@H](O)C(C)(C)CO [Compound 1250, (R)-2,4-dihydroxy-3,3-dimethyl-N-(3-((2-(methylthio)ethyl)amino)-3-oxopropyl)butanamide]
inhibition at 10 µM (HepG2 cells [11]): > 50%
activation at 10 µM (HepG2 cells [12]): > 5%
